Species: Rattus norvegicus
Test: Open TG-GATES - Regimen: Daily Repeat
Type: toxicity, organism-based, Sprague-Dawley
Set-up: regimen Daily Repeat, gender Male, age 6 weeks
Details: in vivo, iv, 0 mg/kg, route intravenous injection, dose level Control; for APTT / Bas / Eos / Fbg / Hb / Ht / Lym / MCH / MCHC / MCV / Mono / Neu / PT / Plat / RBC / Ret / WBC: tissue Blood; for KIDNEY_L / KIDNEY_R / KIDNEY_TOTAL: tissue Kidney; for LIVER: tissue Liver; for A/G / ALP / ALT / AST / BUN / CRE / Ca / Cl / DBIL / GLC / IP / K / LDH / Na / PL / RALB / TBIL / TC / TG / TP / gamma-GTP: tissue Plasma

## NCCBr [BROMOETHANAMINE]
72 h, time 3 day
  TERMINAL_BW: 229.6 g
  APTT: 23.7 s
  Bas: 0%
  Eos: 1%
  Fbg: 290.6 mg/dL
  Hb: 13.5 g/dL
  Ht: 39.3%
  Lym: 82.2%
  MCH: 21 pg
  MCHC: 34.4%
  MCV: 61.2 fL
  Mono: 2%
  Neu: 13.6%
  PT: 16.3 s
  Plat: 122.8 x10_4/uL
  RBC: 641.2 x10_4/ul
  Ret: 4.8%
  WBC: 116.1 x10_2/uL
  KIDNEY_L: 1 g
  KIDNEY_R: 1 g
  KIDNEY_TOTAL: 2 g
  LIVER: 10.3 g
  A/G: 1.2
  ALP: 1818.6 IU/L
  ALT: 45.2 IU/L
  AST: 72.2 IU/L
  BUN: 16 mg/dL
  CRE: 0.2 mg/dL
  Ca: 10.7 mg/dL
  Cl: 106 meq/L
  DBIL: 0 mg/dL
  GLC: 181 mg/dL
  IP: 7.7 mg/dL
  K: 4.7 meq/L
  LDH: 170 IU/L
  Na: 141.4 meq/L
  PL: 132 mg/dL
  RALB: 3 g/dL
  TBIL: 0.006 mg/dL
  TC: 68.4 mg/dL
  TG: 76 mg/dL
  TP: 5.5 g/dL
  gamma-GTP: 1.4 IU/L
[…], time 7 day
  TERMINAL_BW: 257 g
  APTT: 23.2 s
  Bas: 0%
  Eos: 1%
  Fbg: 288.8 mg/dL
  Hb: 13.7 g/dL
  Ht: 39.5%
  Lym: 82.8%
  MCH: 21 pg
  MCHC: 34.6%
  MCV: 60.9 fL
  Mono: 2.4%
  Neu: 13.2%
  PT: 15.9 s
  Plat: 132.6 x10_4/uL
  RBC: 649.4 x10_4/ul
  Ret: 4.4%
  WBC: 113.7 x10_2/uL
  KIDNEY_L: 1.1 g
  KIDNEY_R: 1.1 g
  KIDNEY_TOTAL: 2.2 g
  LIVER: 11.9 g
  A/G: 1.1
  ALP: 1565.4 IU/L
  ALT: 39 IU/L
  AST: 68.2 IU/L
  BUN: 17.6 mg/dL
  CRE: 0.2 mg/dL
  Ca: 10.7 mg/dL
  Cl: 104.6 meq/L
  DBIL: 0 mg/dL
  GLC: 188.2 mg/dL
  IP: 6.9 mg/dL
  K: 4.7 meq/L
  LDH: 190.6 IU/L
  Na: 139.8 meq/L
  PL: 138.6 mg/dL
  RALB: 2.9 g/dL
  TBIL: 0.008 mg/dL
  TC: 71.2 mg/dL
  TG: 94.8 mg/dL
  TP: 5.5 g/dL
  gamma-GTP: 2.4 IU/L
[…], time 14 day
  TERMINAL_BW: 314.6 g
  APTT: 23.9 s
  Bas: 0%
  Eos: 1.2%
  Fbg: 301 mg/dL
  Hb: 14 g/dL
  Ht: 40.1%
  Lym: 85%
  MCH: 20.6 pg
  MCHC: 34.9%
  MCV: 59 fL
  Mono: 2.2%
  Neu: 10.6%
  PT: 15.9 s
  Plat: 117.9 x10_4/uL
  RBC: 680.2 x10_4/ul
  Ret: 3.6%
  WBC: 89.2 x10_2/uL
  KIDNEY_L: 1.3 g
  KIDNEY_R: 1.3 g
  KIDNEY_TOTAL: 2.6 g
  LIVER: 13.5 g
  A/G: 1.1
  ALP: 1268.2 IU/L
  ALT: 42 IU/L
  AST: 72.8 IU/L
  BUN: 18.4 mg/dL
  CRE: 0.2 mg/dL
  Ca: 10.9 mg/dL
  Cl: 106 meq/L
  DBIL: 0 mg/dL
  GLC: 183.8 mg/dL
  IP: 7.4 mg/dL
  K: 4.5 meq/L
  LDH: 176 IU/L
  Na: 143.8 meq/L
  PL: 139.2 mg/dL
  RALB: 3.1 g/dL
  TBIL: 0.004 mg/dL
  TC: 71.6 mg/dL
  TG: 97.8 mg/dL
  TP: 5.8 g/dL
  gamma-GTP: 2.4 IU/L
[…], time 28 day
  TERMINAL_BW: 359.9 g
  APTT: 25.5 s
  Bas: 0%
  Eos: 1.8%
  Fbg: 297 mg/dL
  Hb: 15.7 g/dL
  Ht: 42.5%
  Lym: 84.8%
  MCH: 20.6 pg
  MCHC: 36.9%
  MCV: 55.8 fL
  Mono: 2%
  Neu: 10.8%
  PT: 16.7 s
  Plat: 100.6 x10_4/uL
  RBC: 762.2 x10_4/ul
  Ret: 2.3%
  WBC: 126.1 x10_2/uL
  KIDNEY_L: 1.3 g
  KIDNEY_R: 1.4 g
  KIDNEY_TOTAL: 2.7 g
  LIVER: 13.9 g
  A/G: 1.1
  ALP: 1244.2 IU/L
  ALT: 39.2 IU/L
  AST: 67.8 IU/L
  BUN: 19.6 mg/dL
  CRE: 0.2 mg/dL
  Ca: 10.4 mg/dL
  Cl: 104.4 meq/L
  DBIL: 0 mg/dL
  GLC: 203.4 mg/dL
  IP: 6.4 mg/dL
  K: 4.2 meq/L
  LDH: 147 IU/L
  Na: 144.2 meq/L
  PL: 137 mg/dL
  RALB: 3.1 g/dL
  TBIL: 0.01 mg/dL
  TC: 66 mg/dL
  TG: 124.4 mg/dL
  TP: 6 g/dL
  gamma-GTP: 2.8 IU/L
